Results taken from PubChem BioAssay AID248 (DTP/NCI, 2004).
Where “and” joins values, the source holds several entries; their conditions need not be identical. Equal entries are not always repeated. Inconclusive results and toxic doses are left out. Cut-off read from the data, not from the text of the source: active = T/C of 150% or more; inactive = T/C below 125%.

Test system: L1210 leukemia ip in BDF1 mice, survival T/C
Assay: NCI In Vivo Anticancer Drug Screen. Data for tumor model L1210 Leukemia (intraperitoneal) in B6D2F1 (BDF1) mice
Conditions: endpoint: mean survival time, higher = longer survival
In short: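 Value reflects the ratio of survival in compound-treated mice to survival in vehicle-treated controls, with both groups carrying the same transplanted tumor.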

[1] = dose: 100.0 mg/kg/injection, schedule: Q01DX001 (ip), vehicle: saline with Tween-80
[2] = dose: 100.0 mg/kg/injection, schedule: Q01DX009 (ip), vehicle: saline with Tween-80
[3] = dose: 200.0 mg/kg/injection, schedule: Q01DX001 (ip), vehicle: saline with Tween-80
[4] = dose: 200.0 mg/kg/injection, schedule: Q01DX009 (ip), vehicle: saline with Tween-80
[5] = dose: 400.0 mg/kg/injection, schedule: Q01DX001 (ip), vehicle: saline with Tween-80
[6] = dose: 400.0 mg/kg/injection, schedule: Q01DX009 (ip), vehicle: saline with Tween-80
[7] = dose: 200.0 mg/kg/injection, schedule: Q04DX003 (ip), vehicle: saline with Tween-80
[8] = dose: 100.0 mg/kg/injection, schedule: Q04DX003 (ip), vehicle: saline with Tween-80
[9] = dose: 100.0 mg/kg/injection, schedule: Q04DX003 (ip), vehicle: saline
[10] = dose: 100.0 mg/kg/injection, schedule: Q04DX003 (ip), vehicle: Klucel (hydroxypropylcellulose) (HPC)
[11] = dose: 200.0 mg/kg/injection, schedule: Q04DX003 (ip), vehicle: Klucel (hydroxypropylcellulose) (HPC)
[12] = dose: 400.0 mg/kg/injection, schedule: Q04DX003 (ip), vehicle: Klucel (hydroxypropylcellulose) (HPC)
[13] = dose: 100.0 mg/kg/injection, schedule: Q01DX009 (ip), vehicle: saline
[14] = dose: 200.0 mg/kg/injection, schedule: Q01DX009 (ip), vehicle: saline
[15] = dose: 400.0 mg/kg/injection, schedule: Q01DX009 (ip), vehicle: saline
[16] = dose: 100.0 mg/kg/injection, schedule: Q01DX009 (ip), vehicle: Klucel (hydroxypropylcellulose) (HPC)
[17] = dose: 200.0 mg/kg/injection, schedule: Q01DX009 (ip), vehicle: Klucel (hydroxypropylcellulose) (HPC)
[18] = dose: 400.0 mg/kg/injection, schedule: Q01DX009 (ip), vehicle: Klucel (hydroxypropylcellulose) (HPC)
[19] = dose: 100.0 mg/kg/injection, schedule: Q04DX002 (ip), vehicle: Klucel (hydroxypropylcellulose) (HPC)
[20] = dose: 200.0 mg/kg/injection, schedule: Q04DX002 (ip), vehicle: Klucel (hydroxypropylcellulose) (HPC)
[21] = dose: 100.0 mg/kg/injection, schedule: Q01DX001 (ip), vehicle: carboxymethylcellulose (CMC)
[22] = dose: 200.0 mg/kg/injection, schedule: Q01DX001 (ip), vehicle: carboxymethylcellulose (CMC)
[23] = dose: 400.0 mg/kg/injection, schedule: Q01DX001 (ip), vehicle: carboxymethylcellulose (CMC)
[24] = dose: 100.0 mg/kg/injection, schedule: Q01DX001 (ip), vehicle: Klucel (hydroxypropylcellulose) (HPC)
[25] = dose: 200.0 mg/kg/injection, schedule: Q01DX001 (ip), vehicle: Klucel (hydroxypropylcellulose) (HPC)
[26] = dose: 400.0 mg/kg/injection, schedule: Q01DX001 (ip), vehicle: Klucel (hydroxypropylcellulose) (HPC)

Measured: T/C

COc1ccc(Cl)cc1NC(=O)Nc1cc(C)ccc1N=Nc1ccc(C)cc1
inactive: [1] 96 % of control and 91 % of control | [2] 88 % of control | dose: 100.0 mg/kg/injection, schedule: Q04DX002 (ip), vehicle: saline with Tween-80 87 % of control | [3] 96 % of control | [4] 94 % of control and 91 % of control | dose: 200.0 mg/kg/injection, schedule: Q04DX002 (ip), vehicle: saline with Tween-80 92 % of control | [5] 96 % of control and 88 % of control | [6] 94 % of control | dose: 400.0 mg/kg/injection, schedule: Q04DX002 (ip), vehicle: saline with Tween-80 92 % of control

CCSc1ncnc2c1ncn2C1OC(CO)C(O)C1O (stereo unspecified)
inactive: dose: 132.0 mg/kg/injection, schedule: Q04DX003 (ip), vehicle: saline with Tween-80 116 % of control | [7] 124 % of control

CCCCCCCC[n+]1cccc(C(N)=O)c1
inactive: [8] 98 % of control | [7] 89 % of control

COC(=O)C1=C(C(=O)OC)C2OC1C(COC(C)=O)=C2COC(C)=O
inactive: [9] 93 % of control

C(=C\CN(Cc1ccccc1)Cc1ccccc1)/CN(Cc1ccccc1)Cc1ccccc1
inactive: [10] 90 % of control | [11] 87 % of control | [12] 87 % of control

CCC1C2Cc3ccc(O)cc3C1(CC)CCN2C (stereo unspecified)
inactive: dose: 50.0 mg/kg/injection, schedule: Q01DX001 (ip), vehicle: saline 101 % of control | dose: 100.0 mg/kg/injection, schedule: Q01DX001 (ip), vehicle: saline 101 % of control

CC(C)C1CCC(C)C(C(O)(C(F)(F)F)C(F)(F)F)C1=O (stereo unspecified)
inactive: [13] 114 % of control | [14] 97 % of control | [15] 97 % of control

COC(=O)Nc1cccc2c1C=CC(C#N)N2C(=O)OC (stereo unspecified)
inactive: [16] 93 % of control | [10] 87 % of control | [17] 100 % of control | [11] 91 % of control | [12] 100 % of control

CCc1c(Cl)c(C)c(Cl)c(O)c1Cl
inactive: dose: 100.0 mg/kg/injection, schedule: Q04DX003 (ip), vehicle: other 102 % of control | dose: 200.0 mg/kg/injection, schedule: Q04DX003 (ip), vehicle: other 93 % of control

Brc1ccc(Nc2c3ccccc3nc3ccccc23)cc1
inactive: [8] 97 % of control | [7] 103 % of control

O=C(NCCCCc1ccccc1)c1ccccc1
inactive: [16] 102 % of control | [10] 95 % of control | [17] 109 % of control | [11] 105 % of control | [18] 106 % of control | [12] 95 % of control

O=C(O)CCNc1ccc(Cl)cc1[N+](=O)[O-]
inactive: [19] 97 % of control | [20] 120 % of control

O=C(Nc1ccc(C2=NCCN2)c(O)c1)c1cccc(C(=O)Nc2ccc(C3=NCCN3)c(O)c2)c1
inactive: dose: 10.0 mg/kg/injection, schedule: Q01DX Z (ip), vehicle: carboxymethylcellulose (CMC) 101 % of control | dose: 20.0 mg/kg/injection, schedule: Q01DX Z (ip), vehicle: carboxymethylcellulose (CMC) 109 % of control | dose: 40.0 mg/kg/injection, schedule: Q01DX Z (ip), vehicle: carboxymethylcellulose (CMC) 101 % of control | dose: 80.0 mg/kg/injection, schedule: Q01DX Z (ip), vehicle: carboxymethylcellulose (CMC) 101 % of control

CCOP(=O)(Nc1ccc2c(c1)C(=O)c1ccccc1-2)OCC
inactive: dose: 50.0 mg/kg/injection, schedule: Q01DX001 (ip), vehicle: carboxymethylcellulose (CMC) 97 % of control | [21] 103 % of control | [22] 100 % of control | [23] 103 % of control

Cc1ccc(NC(=O)c2ccc([N+](=O)[O-])cc2)cc1Cl
inactive: dose: 25.0 mg/kg/injection, schedule: Q01DX009 (ip), vehicle: Klucel (hydroxypropylcellulose) (HPC) 95 % of control | dose: 50.0 mg/kg/injection, schedule: Q01DX009 (ip), vehicle: Klucel (hydroxypropylcellulose) (HPC) 103 % of control | [24] 95 % of control | [16] 103 % of control | [10] 93 % of control | [25] 106 % of control | [11] 95 % of control | [26] 98 % of control | [12] 98 % of control

CN(C)c1ccc(C=Nc2ccc(Cl)cc2)cc1
inactive: [24] 91 % of control | [10] 93 % of control | [25] 93 % of control | [11] 91 % of control | [26] 90 % of control | [12] 91 % of control

C/C(=N/N=C(N)N)c1ccc(Cl)cc1
inactive: dose: 15.0 mg/kg/injection, schedule: Q01DX Z (ip), vehicle: carboxymethylcellulose (CMC) 96 % of control | dose: 15.0 mg/kg/injection, schedule: Q01DX Z (oral), vehicle: carboxymethylcellulose (CMC) 108 % of control | dose: 30.0 mg/kg/injection, schedule: Q01DX Z (ip), vehicle: carboxymethylcellulose (CMC) 95 % of control | dose: 30.0 mg/kg/injection, schedule: Q01DX Z (oral), vehicle: carboxymethylcellulose (CMC) 104 % of control | dose: 60.0 mg/kg/injection, schedule: Q01DX Z (oral), vehicle: carboxymethylcellulose (CMC) 98 % of control

CCOC(=O)c1ccc2c(c1)Cc1c-2cc(Br)c(N)c1Br
inactive: [21] 100 % of control | [22] 102 % of control | [23] 91 % of control

Cc1c(Cl)cccc1NC(=O)c1ccccc1C(=O)O
inactive: [16] 98 % of control | [10] 96 % of control | [17] 104 % of control | [11] 100 % of control | [18] 102 % of control | [12] 102 % of control

CC(C)=CCN(CC=C(C)C)CCC(C(N)=O)c1cccc2ccccc12 (stereo unspecified)
inactive: dose: 6.25 mg/kg/injection, schedule: Q04DX003 (ip), vehicle: Klucel (hydroxypropylcellulose) (HPC) 93 % of control | dose: 12.5 mg/kg/injection, schedule: Q04DX003 (ip), vehicle: Klucel (hydroxypropylcellulose) (HPC) 93 % of control | dose: 25.0 mg/kg/injection, schedule: Q04DX003 (ip), vehicle: Klucel (hydroxypropylcellulose) (HPC) 98 % of control

Cc1ccc(C)c(NC(=O)Oc2ccc(-c3ccccc3)cc2)c1
inactive: [13] 96 % of control | [9] 109 % of control | [14] 95 % of control | dose: 200.0 mg/kg/injection, schedule: Q04DX003 (ip), vehicle: saline 110 % of control | [15] 95 % of control | dose: 400.0 mg/kg/injection, schedule: Q04DX003 (ip), vehicle: saline 101 % of control

Clc1ccc(N2CCN(CCCN3CCN(c4cccc(Cl)c4)CC3)CC2)cc1
inactive: [10] 88 % of control | [11] 91 % of control

CCOc1ccc(N=Cc2cccc([N+](=O)[O-])c2)cc1
inactive: [1] 103 % of control | [2] 107 % of control and 90 % of control | [3] 90 % of control | [4] 97 % of control and 90 % of control | [5] 99 % of control | [6] 100 % of control and 91 % of control

CCOC(=O)NC1CCC1NC(=O)OCC (stereo unspecified)
inactive: [2] 95 % of control | [4] 98 % of control | [6] 91 % of control

O=C(COc1ccc(Cl)cc1Cl)OCCOc1ccc(Cl)cc1
inactive: [19] 97 % of control | [20] 97 % of control | dose: 400.0 mg/kg/injection, schedule: Q04DX002 (ip), vehicle: Klucel (hydroxypropylcellulose) (HPC) 118 % of control

CCCCCCCc1nc(N)c(C(N)=O)[nH]1
inactive: dose: 25.0 mg/kg/injection, schedule: Q04DX003 (ip), vehicle: saline with Tween-80 96 % of control | dose: 50.0 mg/kg/injection, schedule: Q04DX003 (ip), vehicle: saline with Tween-80 102 % of control | [1] 98 % of control | [8] 101 % of control

C=CCCC1(CCC)C(=O)NC(=O)NC1=O
inactive: dose: 75.0 mg/kg/injection, schedule: Q01DX001 (ip), vehicle: saline 103 % of control | dose: 150.0 mg/kg/injection, schedule: Q01DX001 (ip), vehicle: saline 113 % of control | dose: 300.0 mg/kg/injection, schedule: Q01DX001 (ip), vehicle: saline 101 % of control
